In patent US20060025474A1, “Bisphenyl compounds useful as vitamin D3 receptor agonists” (priority 2004, published 2006):

Test system: ECAC2 mRNA in Caco-2 cells
Format: cell-based
Protocol: The mRNA Expression Assay of ECAC2 in Caco-2 Cells
The dispersed cells were plated in 48-well plate at a concentration of 6.3×10^4 cells/well and incubated for 4 days at 37° C. The culture medium (Dulbecco's Modified Eagle Medium (D-MEM) without NaHCO3 with 44 mM NaHCO3, 1 mM non-essential amino acids, and 2 mM L-glutamine, 90%; fetal bovine serum, 10%) was then replaced with the same medium containing various concentrations of LG190178 (the compound disclosed in WO00/10958 and the corresponding U.S. Pat. No. 6,218,430 B1) or the compounds of the present invention, and cells were cultured for 1 day at 37° C. The culture medium containing the compounds was changed twice per day.
Total RNA Isolation from Caco-2 Cell
Total RNA was isolated from Caco-2 cell following ABI PRISM™ 6100 Nucleic Acid PrepStation protocol from Applied Biosystems.
Real Time RT-PCR Assay of ECAC2
ECAC2 mRNA expression was determined using TaqMan One-step RT-PCR Master Mix Reagents Kit and PRISM7000 systems from Applied Biosystems.
Primer information and cycle conditions are 1)ECAC2, forward 5′-[…]-3′, reverse 5′-GTCCTCTGTCTGGMGATGA-3′, Taqman probe 5′-[…]-3′, 55 cycles, annealing temperature (Ta)=60° C.; 2)GAPDH, forward 5′-GMGGTGMGGTCGGAGTC-3′, reverse 5′-GMGATGGTGATGGGATTTC-3′, Taqman probe 5′-[…]-3′, 55 cycles, Ta=60° C. ECAC2 mRNA values were normalized for the expression of GAPDH mRNA within each sample.
Comparison of ECAC2 mRNA Value
The EC50 values of ECAC2 mRNA values were analyzed by Emax models. The ECAC2 mRNA ratio was calculated as the ratio of the EC50 value of the compounds to that of LG190178. ECAC2 is a channel-like transporter mediating intestinal calcium absorption. It is described in J Biol Chem. Aug. 6, 1999; 274(32):22739-46 for example.

In order of rising “ECaC-2 mRNA induction activity in Caco-2 cells” value:
1. CCC(CC)(c1ccc(C#CC(O)(C(F)(F)F)C(F)(F)F)c(C)c1)c1ccc(OC[C@@H](O)CCC(=O)O)c(C)c1 [Example 2, (S)-5-(4-{1-ethyl-1-[3-methyl-4-(4,4,4-trifluoro-3-hydroxy-3-trifluoromethyl-but-1-ynyl)-phenyl]-propyl}-2-methyl-phenoxy)-4-hydroxy-pentanoic acid]  49%
2. CCC(CC)(c1ccc(CCC(O)C(C)(C)C)c(C)c1)c1ccc(OC[C@@H](O)CCCC(=O)O)c(C)c1 (stereo partly drawn) [Example 186, 6-(4-{1-Ethyl-1-[4-(3-hydroxy-4,4-dimethyl-pentyl)-3-methyl-phenyl]-propyl}-2-methyl-phenoxy)-5(S)-hydroxy-hexanoic acid]  57%
3. CCC(O)(/C=C/c1ccc(C(CC)(CC)c2ccc(OCc3ccc(C(=O)O)cc3)c(C)c2)cc1C)CC [Example 147, 4-(4-{I-Ethyl-1-[4-((E)-3-ethyl-3-hydroxy-pent-1-enyl)-3-methyl-phenyl]-propyl}-2-methyl-phenoxymethyl)-benzoic acid]  75%
4. CCC(CC)(c1ccc(/C=C/C(O)(C(F)(F)F)C(F)(F)F)c(C)c1)c1ccc(OC[C@H]2CCCO2)c(C)c1 [Example 155, (E)4-[4-(1-Ethyl-1-{3-methyl4-[(R)-1-(tetrahydro-furan-2-yl)methoxy]-phenyl}-propyl)-2-methyl-phenyl]-11,11-trifluoro-2-trifluoromethyl-but-3-en-2-ol]  86%
5. CCC(O)(/C=C/c1ccc(C(CC)(CC)c2ccc(OC[C@H]3CCC(=O)O3)c(C)c2)cc1C)CC [Example 44, (R)-5-(4-{1-ethyl-1-[4-((E)-3-ethyl-3-hydroxy-pent-1-enyl)-3-methyl-phenyl]-propyl}-2-methyl-phenoxymethyl)-dihydro-furan-2-one]  96%
6. CCC(CC)(c1ccc(C#CC(O)(C(F)(F)F)C(F)(F)F)c(C)c1)c1ccc(OC[C@H]2CCCC(=O)O2)c(C)c1 [Example 59, (R)-6-(4-{1-Ethyl-1-[3-methyl4-(4,4,4-trifluoro-3-hydroxy-3-trifluoromethyl-but-1-ynyl)-phenyl]-propyl}-2-methyl-phenoxymethyl)-tetrahydro-pyran-2-one]  117%
7. CCC(CC)(c1ccc(CCC(O)(C(F)(F)F)C(F)(F)F)c(C)c1)c1ccc(OCC(CO)CO)c(C)c1 [Example 79, 2-(4-{1-ethyl-1-[3-methyl-4-(4,4,4-trifluoro-3-hydroxy-3-trifluoromethyl-butyl)-phenyl]-propyl}-2-methyl-phenoxymethyl)-propane-1,3-diol]  178%
8. CCC(CC)(c1ccc(/C=C/C(O)(C(F)(F)F)C(F)(F)F)c(C)c1)c1ccc(OCCCCCC(=O)O)c(C)c1 [Example 92, 6-(4-{1-Ethyl-1-[3-methyl-4-((E)4,4,4-trifluoro-3-hydroxy-3-trifluoromethyl-but-1-enyl)-phenyl]-propyl}-2-methyl-phenoxy)-hexanoic acid]  226%
9. CCC(O)(/C=C/c1ccc(C(CC)(CC)c2cc(C)c(OC[C@@H](O)CCC(=O)O)c(C)c2)cc1C)CC [Example 167, (S)-5-(4-{1-Ethyl-1-[4-((E)-3-ethyl-3-hydroxy-pent-1-enyl)-3-methyl-phenyl]-propyl}-2,6-dimethyl-phenoxy)-4-hydroxy-pentanoic acid]  323%
10. CCC(CC)(c1ccc(CCC(O)C(C)(C)C)c(C)c1)c1ccc(OCCCCC(=O)O)c(C)c1 (stereo not drawn) [Example 80, 5-(4-{1-ethyl-1-[4-(3-hydroxy-4,4-dimethyl-pentyl)-3-methyl-phenyl]-propyl}-2-methyl-phenoxy)-pentanoic acid]  518%
11. CCC(CC)(c1ccc(/C=C/C(O)(C(F)(F)F)C(F)(F)F)c(C)c1)c1ccc(OC[C@H]2CCC(=O)O2)c(C)c1 [Example 48, (R)-5-(4-{1-ethyl-1-[3-methyl-4-((E)-4,4,4-trifluoro-3-hydroxy-3-trifluoromethyl-but-1-enyl)-phenyl]-propyl}-2-methyl-phenoxymethyl)-dihydro-furan-2-one]  519%
12. C=C1/C(=C\C=C2/CCC[C@]3(C)[C@@H]([C@H](C)CCCC(C)(C)O)CC[C@@H]23)C[C@@H](O)C[C@@H]1O [1,25(OH)2D3, reference compound]  556%
13. CCC(CC)(c1ccc(C#CC(O)(C(F)(F)F)C(F)(F)F)c(C)c1)c1ccc(OC[C@H](O)CCCO)c(C)c1 [Example 152, (R)-5-(4-{1-Ethyl-1-[3-methyl-4-(4,4,4-trifluoro-3-hydroxy-3-trifluoromethyl-but-1-ynyl)-phenyl]-propyl}-2-methyl-phenoxy)-pentane-1,4-diol]  586%
14. CCC(CC)(c1ccc(/C=C/C(O)C(C)(C)C)c(C)c1)c1ccc(OC[C@@H](O)CO)c(C)c1 (stereo partly drawn) [Example 67, 3-(4-{1-ethyl-1-[4-((E)-3-hydroxy-4,4-dimethyl-pent-1-enyl)-3-methyl-phenyl]-propyl}-2-methyl-phenoxy)-propane--1,2(S)-diol]  860%
15. CCC(CC)(c1ccc(/C=C/C(O)(C(F)(F)F)C(F)(F)F)c(C)c1)c1ccc(OC[C@H]2CCCC(=O)O2)c(C)c1 [Example 61, (R)-6-(4-{1-ethyl-1-[3-methyl4-((E)4,4,4-trifluoro-3-hydroxy-3-trifluoromethyl-but-1-enyl)-phenyl]-propyl}-2-methyl-phenoxymethyl)-tetrahydro-pyran-2-one]  918%
16. CCC(CC)(c1ccc(/C=C/C(O)(C(F)(F)F)C(F)(F)F)c(C)c1)c1ccc(OC[C@H](O)CCC(=O)O)c(C)c1 [Example 49, 5-(4-{1-ethyl-1-[3-methyl4-((E)4,4,4-trifluoro-3-hydroxy-3-trifluoromethyl-but-1-enyl)-phenyl]-propyl}-2-methyl-phenoxy)4(R)-hydroxy-pentanoic acid]  987%
17. CCC(CC)(c1ccc(/C=C/C(O)(C(F)(F)F)C(F)(F)F)c(C)c1)c1ccc(OC[C@@H](O)CCC(=O)O)c(C)c1 [Example 30, (S)-5-(4-{1-ethyl-1-[3-methyl-4-((E)-4,4,4-trifluoro-3-hydroxy-3-trifluoromethyl-but-1-enyl)-phenyl]-propyl}-2-methyl-phenoxy)-4-hydroxy-pentanoic acid]  1777%
18. CCC(CC)(c1ccc(/C=C/C(O)(C(F)(F)F)C(F)(F)F)c(C)c1)c1ccc(OCCCCC(=O)O)c(C)c1 [Example 84, 5-(4-{1-ethyl-1-[3-methyl-4-((E)-4,4,4-trifluoro-3-hydroxy-3-trifluoromethyl-but-1-enyl)-phenyl]-propyl}-2-methyl-phenoxy)-pentanoic acid]  1843%
19. CCC(O)(/C=C/c1ccc(C(CC)(CC)c2ccc(OC[C@@H](O)CCC(=O)O)cc2)cc1C)CC [Example 165, (S)-5-(4-{1-Ethyl-1-[4-((E)-3-ethyl-3-hydroxy-pent-1-enyl)-3-methyl-phenyl]-propyl}-phenoxy)4-hydroxy-pentanoic acid]  2017%
20. CCC(CC)(c1ccc(/C=C/C(O)C(C)(C)C)c(C)c1)c1ccc(OC[C@@H](O)CCC(=O)O)c(C)c1 (stereo partly drawn) [Example 28, 5-(4-{1-ethyl-1-[4-((E)-3-hydroxy-4,4-dimethyl-pent-1-enyl)-3-methyl-phenyl]-propyl}-2-methyl-phenoxy)-4(S)-hydroxy-pentanoic acid]  2093%
21. CCC(CC)(c1ccc(/C=C/C(O)(C(F)(F)F)C(F)(F)F)c(C)c1)c1ccc(OCC(CO)CO)c(C)c1 [Example 78, 2-(4-{1-ethyl-1-[3-methyl-4-((E)-4,4,4-trifluoro-3-hydroxy-3-trifluoromethyl-but-1-enyl)-phenyl]-propyl}-2-methyl-phenoxymethyl)-propane-1,3-diol]  6659%
